Results reported in patent publication US20230277698A1, “SILICON-CONTAINING LIGAND COMPOUNDS” (Technische Universität München, priority 2020, published 2023).

Experiments:
LNCaP cells = experiment: Internalization studies on LNCaP cells; assay type: cell-based; conditions: 177Lu-labelled, c=1.0 nM, 1 hour, 37 °C; % of reference ligand ([125I]I-BA)KuE (c=0.2 nM); corrected for non-specific binding (PMPA); mean±SD, n=3-6
Procedure: PSMA-positive LNCAP cells (300265; Cell Lines Service, Eppelheim, Germany) were cultivated in Dulbecco modified Eagle medium/Nutrition Mixture F-12 with Glutamax (1:1) (DMEM-F12, Biochrom, Berlin, Germany) supplemented with fetal bovine serum (10%, FBS Zellkultur, Berlin, Germany) and kept at 37° C. in a humidified CO2 atmosphere (5%). A mixture of trypsin and EDTA (0.05%, 0.02%) in PBS (Biochrom) was used in order to harvest cells. Cells were counted with a Neubauer hemocytometer (Paul Marienfeld, Lauda-Königshofen, Germany).
For internalization studies, LNCaP cells were harvested 24±2 hours before the experiment and seeded in poly-L-lysine coated 24-well plates (1.25×10^5 cells in 1 mL/well, Greiner Bio-One, Kremsmünster, Austria). After removal of the culture medium, the cells were washed once with 500 μL DMEM-F12 (5% BSA) and left to equilibrate for at least 15 min at 37° C. in 200 μL DMEM-F12 (5% BSA). Each well was treated with either 25 μL of either DMEM-F12 (5% BSA, control) or 25 μL of a 100 μM PMPA (2-(Phosphonomethyl)-pentandioic acid, Tocris Bioscience, Bristol, UK) solution in PBS, for blockade. Next, 25 μL of the radioactive-labelled PSMA inhibitor (10.0 nM in PBS) was added and the cells were incubated at 37° C. for 60 min. The experiment was terminated by placing the 24-well plate on ice for 3 min and consecutive removal of the medium. Each well was carefully washed with 250 μL of ice-cold HBSS. Both fractions from the first steps, representing the amount of free radioligand, were combined. Removal of surface bound activity was accomplished by incubation of the cells with 250 μL of ice-cold PMPA (10 μM in PBS) solution for 5 min and rinsed again with another 250 μL of ice-cold PBS. The internalized activity was determined by incubation of the cells in 250 μL 1 M aqueous NaOH for at least 10 min. The obtained fractions were combined with those of the subsequent wash step with 250 μL 1 M aqueous NaOH. Each experiment (control and blockade) was performed in triplicate. Free, surface bound and internalized activity was quantified in a γ-counter. All internalization studies were accompanied by external reference studies, using ([^125I]l-BA)KuE (c=0.2 nM), which were performed analogously. Data were corrected for non-specific binding and normalized to the specific-internalization observed for the radioiodinated reference compound.
Data is corrected for non-specific binding (10 μmol PMPA) and expressed as mean±SD (n=3-6): […]

[1] = target: human serum albumin (HSA) (Homo sapiens, UniProt P02768); experiment: HSA binding by radio inversed affinity chromatography (RIAC); assay type: in vitro ADME; conditions: 177Lu-labelled; Superdex 75 Increase 10/300 GL, 700 μM HSA in PBS, 0.8 mL/min
Procedure: A gel filtration column Superdex 75 Increase 10/300 GL (GE Healthcare, Uppsala, Sweden) was beforehand calibrated following the producer's recommendations with a commercially available gel filtration calibration kit (GE Healthcare, Buckinghamshire, UK) comprising conalbumin (MW: 75 kDa), ovalbumin (44 kDa), carbonic anhydrase (29 kDa), ribonuclease A (13.7 kDa) and aprotinin (6.5 kDa) as reference proteins of known molecular weight. RIAC experiments were conducted using a constant flow rate of 0.8 mL/min at rt. A solution of HSA in PBS at physiological concentration (700 μM) was used as the mobile phase. PSMA ligands were labelled as described with molar activities of 10-20 GBq/μmol. Probes of 1.0 MBq of the radioligand were injected directly from the labelling solution. HSA binding was expressed as an apparent molecular weight MW calculated from the retention time of the radioligand using the determined calibration curve.
The following table summarizes the underlying data. MW: molecular weight. tR: experimentally determined retention time. V: elution volume. Kav: partition coefficient.
RIAC, in an inversed way, comprises ligand samples (radiolabeled PSMA ligands) and a protein (HSA) containing mobile phase. Ligand-specific retention is caused by interaction of the ligand probe and HSA in the mobile phase. Unbound species, due to a molecular weight beneath the molecular cut off of the gel filtration column, are maximally retained while bound species are eluted in accordance to the higher molecular weight of the ligand-HSA-complex (MWHSA: 66.47 kDa). Experiments show a single radiopeak indicating a dynamic process of formation and dissociation of the ligand-HSA-complex throughout the passage through the column bed. Accordingly, the absolute retention time is the result of the ligand's mean time of abidance at HSA which is directly defined by the ligand's binding kinetics and affinity toward HSA. For evaluation, experimentally determined retention times tR are first converted into elution volumes Ve by multiplying with the flow rate and thereafter converted into partition coefficients Kav following the equation
where V0 is the column void volume (8.027 mL) and Vc is the geometric column volume (24 mL). Using the equation given by the trend line plot of the column calibration
the apparent molecular weight MW is calculated as
FIG. 7 and the table below show the results HSA-binding of lutetium-complexed PSMA-ligands and reference compounds determined by RIAC on a Superdex 75 Increase 10/300 GL column 700 μM HSA in PBS as solvent using a constant flow rate of 0.8 mL/min (plotted data, extracted from FIG. 8).
FIG. 8 illustrates the determination of HSA binding via radio inverse affinity chromatography (RIAC). Correlation of apparent molecular weight (MW) in Dalton (Da) and retention time of ^177Lu-labeled samples, determined on a Superdex 75 Increase 10/300 GL with 700 μM HSA in PBS as solvent using a constant flow rate of 0.8 mL/min.

[2] = tested on: LNCaP tumor-bearing CB17-SCID mice; experiment: Biodistribution studies 24 h p.i.; assay type: in vivo; conditions: 177Lu-labelled, mean±SD, n=4-5
Procedure: All animal experiments were conducted in accordance with general animal welfare regulations in Germany (German animal protection act, as amended on 18 May 2018, Art. 141 G v. 29.3.2017|626, approval no. 55.2-1-54-2532-71-13) and the institutional guidelines for the care and use of animals. To establish tumor xenografts, LNCaP cells (approx. 10^7 cells) were suspended in 200 μL of a 1:1 mixture (v/v) of DMEM F-12 and Matrigel (BD Biosciences, Germany), and inoculated subcutaneously onto the right shoulder of 6-8 weeks old CB17-SCID mice (Charles River, Sulzfeld, Germany). Mice were used for experiments when tumors had grown to a diameter of 5-10 mm (3-6 weeks after inoculation).
Approximately 5-10 MBq (0.1-0.2 nmol) of the radioactive-labelled PSMA inhibitors were injected into the tail vein of LNCaP tumor-bearing male CB-17 SCID mice and sacrificed after 24 h post injection. Selected organs were removed, weighted and measured in a γ-counter.
FIG. 10 and the following table show the biodistribution data 24 h p.i. of ^177Lu-labeled compounds in LNCaP tumor-bearing CB17-SCID mice. Data are expressed as mean±SD (n=4-5).

human serum albumin (HSA), sequence (P02768 25-609): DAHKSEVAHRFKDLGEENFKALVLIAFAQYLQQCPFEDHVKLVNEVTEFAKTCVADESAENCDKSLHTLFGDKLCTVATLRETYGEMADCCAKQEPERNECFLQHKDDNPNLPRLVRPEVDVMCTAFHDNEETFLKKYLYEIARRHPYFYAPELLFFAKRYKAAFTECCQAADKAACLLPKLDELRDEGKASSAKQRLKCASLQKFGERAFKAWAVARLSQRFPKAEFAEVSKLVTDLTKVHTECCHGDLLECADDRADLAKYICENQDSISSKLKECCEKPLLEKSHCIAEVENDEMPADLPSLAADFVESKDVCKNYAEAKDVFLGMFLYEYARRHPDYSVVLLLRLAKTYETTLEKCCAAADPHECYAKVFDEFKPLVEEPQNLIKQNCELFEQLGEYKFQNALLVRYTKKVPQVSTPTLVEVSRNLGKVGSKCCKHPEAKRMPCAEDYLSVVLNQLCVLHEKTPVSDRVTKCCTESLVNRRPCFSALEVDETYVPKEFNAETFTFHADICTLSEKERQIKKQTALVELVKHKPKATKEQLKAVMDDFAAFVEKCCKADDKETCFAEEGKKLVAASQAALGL

O=C(O)CC[C@H](NC(=O)N[C@@H](CCCCNC(=O)CCCCCCC(=O)NCCCC[C@@H](NC(=O)[C@@H](Cc1ccccc1)NC(=O)[C@@H](Cc1ccc(O)c(I)c1)NC(=O)CCC(C(=O)O)N1CCN(CC(=O)O)CCN(CC(=O)O)CCN(CC(=O)O)CC1)C(=O)O)C(=O)O)C(=O)O (stereo partly drawn) [PSMA I&T, reference compound]
Internalization (% IBA) (LNCaP cells): 76 ± 2 % IBA | HSA-binding RIAC (apparent molecular weight) [1]: 5.3 kDa | biodistribution: tumor ([2]; LNCaP xenograft): 4.1 ± 1.1 % ID/g | biodistribution: blood ([2]; i.v. tail vein): 0.012 ± 0.01 % ID/g | biodistribution: adrenals [2]: 1.06 ± 0.24 % ID/g | biodistribution: bone [2]: 0.01 ± 0.01 % ID/g | biodistribution: heart [2]: 0.05 ± 0.03 % ID/g | biodistribution: intestine [2]: 0.12 ± 0.06 % ID/g | biodistribution: kidneys [2]: 34.7 ± 17.2 % ID/g | biodistribution: liver [2]: 0.05 ± 0.01 % ID/g | biodistribution: lung [2]: 0.16 ± 0.03 % ID/g | biodistribution: muscle [2]: 0.01 ± 0.01 % ID/g | biodistribution: pancreas [2]: 0.05 ± 0.02 % ID/g | biodistribution: spleen [2]: 1.94 ± 1.01 % ID/g | biodistribution: stomach [2]: 0.05 ± 0.02 % ID/g
